Experimental data taken from patent publication US12655116B2, “Substituted isophthalic acid diamides” (Bayer Aktiengesellschaft, priority 2020, dated 2026).

Experiments:
[1] = tested on: PHBPU; assay: Pre-emergence herbicidal action against PHBPU; assay type: in vivo, Pharbitis purpurea
How it was run: (§1)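 Sandy loam pots, seeds covered with soil, then surface-treated with WP or EC formulations at 600–800 l/ha water plus 0.2% wetting agent. Greenhouse, 3 weeks. Percent damage vs untreated controls.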

[2] = tested on: ABUTH; assay: Post-emergence herbicidal action against ABUTH; assay type: in vivo, Abutilon theophrasti; conditions: visual assessment about 3 weeks after treatment vs untreated controls
How it was run: (§2)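 Visual % rating (0% = as untreated, 100% = dead) ~3 wk after spraying one-leaf-stage plants grown in sandy loam; WP/EC in water at 600–800 l/ha, 0.2% wetting agent.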

[3] = tested on: VIOTR; assay: Pre-emergence herbicidal action against VIOTR; assay type: in vivo, Viola tricolor
How it was run: as §1

[4] = tested on: ALOMY; assay: Pre-emergence herbicidal action against ALOMY; assay type: in vivo, Alopecurus myosuroides; conditions: 80 g/ha, pre-emergence, scored visually after 3 weeks vs untreated controls (100% = plants have died, 0% = like control plants)
How it was run: as §1

[5] = tested on: PHBPU; assay: Post-emergence herbicidal action against PHBPU; assay type: in vivo, Pharbitis purpurea
How it was run: as §2

[6] = tested on: ECHCG; assay: Post-emergence herbicidal action against ECHCG; assay type: in vivo, Echinochloa crus-galli
How it was run: as §2

[7] = tested on: AVEFA; assay: Post-emergence herbicidal action against AVEFA; assay type: in vivo, Avena fatua; conditions: 20 g/ha, visual assessment about 3 weeks after treatment, 100% = plants have died, 0% = like control plants
How it was run: as §2

[8] = tested on: DIGSA; assay: Pre-emergence herbicidal action against DIGSA; assay type: in vivo, Digitaria sanguinalis
How it was run: as §1

[9] = tested on: AVEFA; assay: Pre-emergence herbicidal action against AVEFA; assay type: in vivo, Avena fatua; conditions: 80 g/ha, pre-emergence
How it was run: as §1

[10] = tested on: AMARE; assay: Pre-emergence herbicidal action against AMARE; assay type: in vivo, Amaranthus retroflexus
How it was run: as §1

[11] = tested on: SETVI; assay: Pre-emergence herbicidal action against SETVI; assay type: in vivo, Setaria viridis
How it was run: as §1

[12] = tested on: MATIN; assay: Pre-emergence herbicidal action against MATIN; assay type: in vivo, Matricaria inodora
How it was run: as §1

[13] = tested on: ALOMY; assay: Post-emergence herbicidal action against ALOMY; assay type: in vivo, Alopecurus myosuroides; conditions: dosage 20 g/ha, visual assessment about 3 weeks after treatment vs untreated controls
How it was run: as §2

[14] = tested on: ABUTH; assay: Pre-emergence herbicidal action against ABUTH; assay type: in vivo, Abutilon theophrasti; conditions: for Pre-emergence action against ABUTH (herbicidal activity): 80 g/ha, scored visually after 3 weeks vs untreated controls (100% = plants have died, 0% = like control plants); for Pre-emergence action against ABUTH (herbicidal activity in percent): dosage 20 g/ha, scored visually after 3 weeks vs untreated controls, 100% = plants have died, 0% = like control plants
How it was run: as §1

[15] = tested on: ECHCG; assay: Pre-emergence herbicidal action against ECHCG; assay type: in vivo, Echinochloa crus-galli
How it was run: as §1

[16] = tested on: VERPE; assay: Post-emergence herbicidal action against VERPE; assay type: in vivo, Veronica persica; conditions: 20 g/ha
How it was run: as §2

[17] = tested on: VERPE; assay: Pre-emergence herbicidal action against VERPE; assay type: in vivo, Veronica persica; conditions: dosage 80 g/ha
How it was run: as §1

[18] = tested on: SETVI; assay: Post-emergence herbicidal action against SETVI; assay type: in vivo, Setaria viridis
How it was run: as §2

[19] = tested on: MATIN; assay: Post-emergence herbicidal action against MATIN; assay type: in vivo, Matricaria inodora
How it was run: as §2

[20] = tested on: VIOTR; assay: Post-emergence herbicidal action against VIOTR; assay type: in vivo, Viola tricolor
How it was run: as §2

[21] = tested on: AMARE; assay: Post-emergence herbicidal action against AMARE; assay type: in vivo, Amaranthus retroflexus; conditions: 20 g/ha, visual assessment about 3 weeks after treatment, 100% = plants have died, 0% = like control plants
How it was run: as §2

[22] = 20 g/ha, scored visually after 3 weeks vs untreated controls, 100% = plants have died, 0% = like control plants
[23] = 80 g/ha, scored visually after 3 weeks vs untreated controls (100% = plants have died, 0% = like control plants)

| Structure (SMILES) | Pre-emergence action against PHBPU in % ([1]; dosage 80 g/ha) [%] | Post-emergence action against ABUTH in % ([2]; dosage 5 g/ha) [%] | Post-emergence action against ABUTH in % ([2]; dosage 20 g/ha) [%] | Pre-emergence action against VIOTR in % ([3]; dosage 20 g/ha) [%] | Pre-emergence action against VIOTR in % ([3]; dosage 80 g/ha) [%] | Pre-emergence action against ALOMY (herbicidal activity) [4] [%] | Post-emergence action against PHBPU in % ([5]; dosage 20 g/ha) [%] | Post-emergence action against ECHCG in % ([6]; dosage 20 g/ha) [%] | Post-emergence action at 20 g/ha against AVEFA in % [7] [%] | Pre-emergence action against AVEFA in % [9] [%] | Pre-emergence action against AMARE in % [10, 22] [%] | Pre-emergence action against AMARE in % [10, 23] [%] | Pre-emergence action against SETVI in % ([11]; dosage 80 g/ha) [%] | Pre-emergence action against MATIN in % ([12]; dosage 20 g/ha) [%] | Pre-emergence action against MATIN in % ([12]; dosage 80 g/ha) [%] | Post-emergence action against ALOMY in % [13] [%] | Pre-emergence action against ABUTH (herbicidal activity) [14] [%] | Pre-emergence action against ABUTH (herbicidal activity in percent) [14] [%] | Pre-emergence action against ECHCG in % ([15]; 80 g/ha) [%] | Post-emergence action against ECHCG in % ([6]; dosage 5 g/ha) [%] | further results |
| --- | --- | --- | --- | --- | --- | --- | --- | --- | --- | --- | --- | --- | --- | --- | --- | --- | --- | --- | --- | --- | --- |
| Cc1c(C(=O)Nc2nnnn2C)ccc(C(F)(F)F)c1C(=O)NCC(F)F [Example 1-30] | 100 | 80 | 80 | 100 | 100 | 80 | 80 | 80 | 80 | 100 | 100 | 100 | 100 | 100 | 100 | 80 | 100 | 100 | 80 | – | Pre-emergence action against DIGSA in % ([8]; dosage 20 g/ha): 100%; Pre-emergence action against DIGSA in % ([8]; dosage 80 g/ha): 100%; Pre-emergence action against SETVI in % ([11]; dosage 20 g/ha): 90% |
| Cc1c(C(=O)Nc2nnnn2C)ccc(C(F)(F)F)c1C(=O)NC(C)C1CC1 (centres unmarked) [Example 1-31] | 80 | 80 | 80 | 100 | 100 | 90 | 80 | 80 | 90 | 90 | 100 | 100 | 100 | 100 | 100 | – | 100 | 100 | 100 | 80 | Pre-emergence action against DIGSA in % ([8]; dosage 20 g/ha): 100%; Pre-emergence action against DIGSA in % ([8]; dosage 80 g/ha): 100%; Post-emergence action against VERPE in % [16]: 80%; Pre-emergence action against VERPE in % [17]: 100%; Pre-emergence action against ECHCG in % ([15]; 20 g/ha): 90% |
| CCn1nnnc1NC(=O)c1ccc(C(F)(F)F)c(C(=O)NCC(F)F)c1SC [Example 2-86] | 90 | 80 | 100 | – | 100 | 90 | 90 | 100 | 80 | 90 | 100 | 100 | 100 | 100 | 100 | 80 | 100 | 100 | 100 | 100 | Pre-emergence action against PHBPU in % ([1]; dosage 20 g/ha): 80%; Post-emergence action against SETVI in % ([18]; dosage 5 g/ha): 100%; Post-emergence action against SETVI in % ([18]; dosage 20 g/ha): 100%; Post-emergence action against MATIN in % ([19]; dosage 5 g/ha): 80%; Post-emergence action against MATIN in % ([19]; dosage 20 g/ha): 90%; Post-emergence action against VIOTR in % ([20]; 5 g/ha): 100%; Post-emergence action against VIOTR in % ([20]; 20 g/ha): 100%; Post-emergence action against PHBPU in % ([5]; dosage 5 g/ha): 80%; Post-emergence action at 20 g/ha against AMARE in % [21]: 100%; Pre-emergence action against VERPE in % [17]: 90%; Pre-emergence action against ECHCG in % ([15]; 20 g/ha): 80% |
| CCn1nnnc1NC(=O)c1ccc(C(F)F)c(C(=O)NC(C)C2CC2)c1SC (centres unmarked) [Example 2-351] | 80 | – | 80 | 100 | 100 | 80 | 90 | 100 | 80 | 80 | 100 | 100 | 100 | 100 | 100 | 80 | 100 | 80 | 100 | 100 | Post-emergence action against MATIN in % ([19]; dosage 20 g/ha): 80%; Post-emergence action against VIOTR in % ([20]; 5 g/ha): 100%; Post-emergence action against VIOTR in % ([20]; 20 g/ha): 100%; Post-emergence action against VERPE in % [16]: 90%; Post-emergence action at 20 g/ha against AMARE in % [21]: 100%; Pre-emergence action against VERPE in % [17]: 100% |
